Data from ChEMBL document CHEMBL5500358, “Identification of CH2-linked quinolone-aminopyrimidine hybrids as potent anti-MRSA agents: Low resistance potential and lack of cross-resistance with fluoroquinolone antibiotics” (Eur J Med Chem, 2024).
≈ marks a conversion by molar mass, not a printed value.

How the values were obtained:
Type in all cases: functional
Conditions in all cases: time 16-18 hrs
Staphylococcus aureus [1] = experiment: Antibacterial activity against fluoroquinolone-sensitive methicillin resistant Staphylococcus aureus ATCC 33591 incubated for 16 to 18 hrs by absorbance based analysis
Escherichia coli = experiment: Antibacterial activity against Escherichia coli ATCC 25922 incubated for 16 to 18 hrs by absorbance based analysis
Staphylococcus aureus [2] = experiment: Antibacterial activity against fluoroquinolone-sensitive methicillin resistant Staphylococcus aureus USA500 incubated for 16 to 18 hrs by absorbance based analysis
Staphylococcus aureus [3] = experiment: Antibacterial activity against fluoroquinolone/methicillin resistant Staphylococcus aureus Mu50 incubated for 16 to 18 hrs by absorbance based analysis

Compound `Cc1ccc(Cc2ccnc(Nc3cc4c(cc3F)c(=O)c(C(=O)O)cn4C3CC3)n2)c(C)c1` has an MIC (Staphylococcus aureus [1]) of 1 µg/mL (≈ 2.18 µM), an MIC (Escherichia coli) of over 64 µg/mL and an MIC (Staphylococcus aureus [2]) of 6.25 µg/mL (≈ 13.6 µM). It also gave an MIC (Staphylococcus aureus [3]) of 6.25 µg/mL (≈ 13.6 µM).
In the case of `O=C(O)c1cn(C2CC2)c2cc(Nc3nccc(Cc4ccc(F)c(F)c4)n3)ccc2c1=O`, the MIC (Staphylococcus aureus [1]) is reported as 0.5 µg/mL (≈ 1.12 µM), the MIC (Escherichia coli) is reported as over 64 µg/mL and the MIC (Staphylococcus aureus [2]) is reported as 0.78 µg/mL (≈ 1.74 µM). For the same compound, the MIC (Staphylococcus aureus [3]) was 1.56 µg/mL (≈ 3.48 µM).
Work on `N#Cc1ccccc1Cc1ccnc(Nc2cc3c(cc2F)c(=O)c(C(=O)O)cn3C2CC2)n1` yielded an MIC (Staphylococcus aureus [1]) of 8 µg/mL (≈ 17.6 µM) and an MIC (Escherichia coli) of over 64 µg/mL.
For `Cc1cccc(Cc2ccnc(Nc3cc4c(cc3F)c(=O)c(C(=O)O)cn4C3CC3)n2)c1`, the MIC (Staphylococcus aureus [1]) was 4 µg/mL (≈ 9 µM) and the MIC (Escherichia coli) was over 64 µg/mL.
`Cc1ccccc1Cc1ccnc(Nc2cc3c(cc2F)c(=O)c(C(=O)O)cn3C2CC2)n1` gave an MIC (Staphylococcus aureus [1]) of 2 µg/mL (≈ 4.5 µM) and an MIC (Escherichia coli) of over 64 µg/mL.
`O=C(O)c1cn(C2CC2)c2cc(Nc3nccc(Cc4ccc(Cl)cc4Cl)n3)c(F)cc2c1=O` gave an MIC (Staphylococcus aureus [1]) of 0.5 µg/mL (≈ 1 µM), an MIC (Escherichia coli) of over 64 µg/mL and an MIC (Staphylococcus aureus [2]) of 3.12 µg/mL (≈ 6.25 µM). The MIC (Staphylococcus aureus [3]) was 3.12 µg/mL (≈ 6.25 µM).
Compound `COc1ccc(Cc2ccnc(Nc3cc4c(cc3F)c(=O)c(C(=O)O)cn4C3CC3)n2)cc1` has an MIC (Staphylococcus aureus [1]) of 4 µg/mL (≈ 8.69 µM) and an MIC (Escherichia coli) of over 64 µg/mL.
With `O=C(O)c1cn(C2CC2)c2cc(Nc3nccc(Cc4cccc(F)c4)n3)c(F)cc2c1=O` the MIC (Staphylococcus aureus [1]) was 2 µg/mL (≈ 4.46 µM) and the MIC (Escherichia coli) was over 64 µg/mL.
`O=C(O)c1cn(C2CC2)c2cc(Nc3nccc(Cc4ccccc4Cl)n3)c(F)cc2c1=O` was tested, and the MIC (Staphylococcus aureus [1]) was 2 µg/mL (≈ 4.3 µM), the MIC (Escherichia coli) was over 64 µg/mL and the MIC (Staphylococcus aureus [2]) was 6.25 µg/mL (≈ 13.4 µM). It also gave an MIC (Staphylococcus aureus [3]) of 6.25 µg/mL (≈ 13.4 µM).
Compound `Cc1ccc(Cc2ccnc(Nc3ccc4c(=O)c(C(=O)O)cn(C5CC5)c4c3)n2)c(C)c1` has an MIC (Staphylococcus aureus [1]) of 1 µg/mL (≈ 2.27 µM), an MIC (Escherichia coli) of over 64 µg/mL and an MIC (Staphylococcus aureus [2]) of 1.56 µg/mL (≈ 3.54 µM). For the same compound, the MIC (Staphylococcus aureus [3]) was 1.56 µg/mL (≈ 3.54 µM).
For `O=C(O)c1cn(C2CC2)c2cc(Nc3nccc(Cc4ccccc4)n3)c(F)cc2c1=O`, the MIC (Staphylococcus aureus [1]) was 4 µg/mL (≈ 9.29 µM) and the MIC (Escherichia coli) was over 64 µg/mL.
With `Cc1ccc(Cc2ccnc(Nc3cc4c(cc3F)c(=O)c(C(=O)O)cn4C3CC3)n2)cc1` the MIC (Staphylococcus aureus [1]) was 2 µg/mL (≈ 4.5 µM) and the MIC (Escherichia coli) was over 64 µg/mL.
Work on `O=C(O)c1cn(C2CC2)c2cc(Nc3nccc(Cc4ccc(F)c(F)c4)n3)c(F)cc2c1=O` yielded an MIC (Staphylococcus aureus [1]) of 1 µg/mL (≈ 2.14 µM), an MIC (Escherichia coli) of over 64 µg/mL and an MIC (Staphylococcus aureus [2]) of 6.25 µg/mL (≈ 13.4 µM). The MIC (Staphylococcus aureus [3]) was 6.25 µg/mL (≈ 13.4 µM).
`C[C@H]1COc2c(N3CCN(C)CC3)c(F)cc3c(=O)c(C(=O)O)cn1c23` [LEVOFLOXACIN ANHYDROUS] gave an MIC (Staphylococcus aureus [2]) of 0.2 µg/mL (≈ 0.553 µM) and an MIC (Staphylococcus aureus [3]) of 25 µg/mL (≈ 69.2 µM).
Work on `O=C(O)c1cn(C2CC2)c2cc(Nc3nccc(Cc4ccccc4F)n3)c(F)cc2c1=O` yielded an MIC (Staphylococcus aureus [1]) of 2 µg/mL (≈ 4.46 µM) and an MIC (Escherichia coli) of over 64 µg/mL.
In the case of `Cc1ccc(Cc2ccnc(Nc3cc4c(cc3F)c(=O)c(C(=O)O)cn4C3CC3)n2)cc1C`, the MIC (Staphylococcus aureus [1]) is reported as 2 µg/mL (≈ 4.36 µM), the MIC (Escherichia coli) is reported as over 64 µg/mL and the MIC (Staphylococcus aureus [2]) is reported as 25 µg/mL (≈ 54.5 µM). The MIC (Staphylococcus aureus [3]) was 25 µg/mL (≈ 54.5 µM).
For `O=C(O)c1cn(C2CC2)c2cc(Nc3nccc(Cc4cccc(Cl)c4)n3)ccc2c1=O`, the MIC (Staphylococcus aureus [1]) was 0.5 µg/mL (≈ 1.12 µM), the MIC (Escherichia coli) was over 64 µg/mL and the MIC (Staphylococcus aureus [2]) was 1.56 µg/mL (≈ 3.49 µM). It also gave an MIC (Staphylococcus aureus [3]) of 1.56 µg/mL (≈ 3.49 µM).
Compound `O=C(O)c1cn(C2CC2)c2cc(Nc3nccc(Cc4ccc(Cl)cc4Cl)n3)ccc2c1=O` has an MIC (Staphylococcus aureus [1]) of 0.25 µg/mL (≈ 0.519 µM), an MIC (Escherichia coli) of over 64 µg/mL and an MIC (Staphylococcus aureus [2]) of 0.39 µg/mL (≈ 0.81 µM). For the same compound, the MIC (Staphylococcus aureus [3]) was 0.78 µg/mL (≈ 1.62 µM).
`O=C(O)c1cn(C2CC2)c2cc(Nc3nccc(Cc4ccc(Cl)c(Cl)c4)n3)c(F)cc2c1=O` showed an MIC (Staphylococcus aureus [1]) of 0.5 µg/mL (≈ 1 µM), an MIC (Escherichia coli) of over 64 µg/mL and an MIC (Staphylococcus aureus [2]) of 6.25 µg/mL (≈ 12.5 µM). The MIC (Staphylococcus aureus [3]) was 6.25 µg/mL (≈ 12.5 µM).
With `O=C(O)c1cn(C2CC2)c2cc(Nc3nccc(Cc4ccc(F)cc4)n3)c(F)cc2c1=O` the MIC (Staphylococcus aureus [1]) was 2 µg/mL (≈ 4.46 µM) and the MIC (Escherichia coli) was over 64 µg/mL.
Compound `O=C(O)c1cn(C2CC2)c2cc(Nc3nccc(Cc4ccccc4Cl)n3)ccc2c1=O` has an MIC (Staphylococcus aureus [1]) of 0.5 µg/mL (≈ 1.12 µM), an MIC (Escherichia coli) of over 64 µg/mL and an MIC (Staphylococcus aureus [2]) of 3.12 µg/mL (≈ 6.98 µM). It also gave an MIC (Staphylococcus aureus [3]) of 3.12 µg/mL (≈ 6.98 µM).
With `O=C(O)c1cn(C2CC2)c2cc(N3CCNCC3)c(F)cc2c1=O` [CIPROFLOXACIN] the MIC (Staphylococcus aureus [1]) was 0.25 µg/mL (≈ 0.754 µM) and the MIC (Staphylococcus aureus [2]) was 0.39 µg/mL (≈ 1.18 µM).
Compound `COc1cccc(Cc2ccnc(Nc3cc4c(cc3F)c(=O)c(C(=O)O)cn4C3CC3)n2)c1` has an MIC (Staphylococcus aureus [1]) of 8 µg/mL (≈ 17.4 µM) and an MIC (Escherichia coli) of over 64 µg/mL.
Compound `O=C(O)c1cn(C2CC2)c2cc(Nc3nccc(Cc4ccc(Cl)cc4)n3)c(F)cc2c1=O` has an MIC (Staphylococcus aureus [1]) of 1 µg/mL (≈ 2.15 µM), an MIC (Escherichia coli) of over 64 µg/mL and an MIC (Staphylococcus aureus [2]) of 1.56 µg/mL (≈ 3.36 µM). The MIC (Staphylococcus aureus [3]) was 3.12 µg/mL (≈ 6.71 µM).
Work on `COc1ccccc1Cc1ccnc(Nc2cc3c(cc2F)c(=O)c(C(=O)O)cn3C2CC2)n1` yielded an MIC (Staphylococcus aureus [1]) of 4 µg/mL (≈ 8.69 µM) and an MIC (Escherichia coli) of over 64 µg/mL.
